Laboratory results taken from US20210015752A1, “METHODS FOR PRODUCING PARTICLES OF AN ACTIVE INGREDIENT” (Savior Lifetec Corporation, priority 2017, published 2021).
Each block holds one compound with its values, some of them ahead of it.

Legend:
Type in all cases: physicochemical
[1] = Solubility test of paliperidone palmitate in various types of solvents; conditions: ratio 1/15 (v/w), 30° C., stirred about 0.5 hour
Experimental: The solubility of paliperidone palmitate in various types of solvents was evaluated. To this purpose, paliperidone palmitate and the designated solvent were mixed in a ratio of 1/15 (v/w) at 30° C. and the mixture was stirred for about 0.5 hour.

[2] = Emulsion test of paliperidone palmitate in various types of solvents; conditions: stirred 3 hr
Experimental: Paliperidone palmitate was dissolved in DCM, THF, or toluene at 30° C. and stirred for about 0.5 hour to form a first solution, then a second solvent (as indicated in Table 2) was added and stirred for 3 hr. As the data in Table 2 indicated, among the 36 combinations (i.e., the combination of one of the 3 first solutions and one of the second solvents), only three combinations gave satisfied emulsified solutions, which comprised particles of paliperidone palmitate. The 3 combinations were THF/water, toluene/heptanes, and toluene/hexane, respectively.

[3] = Emulsion test of L-ascorbic acid in various types of solvents; conditions: stirred 3 hr
Excerpt: Two combinations of solvents gave emulsified solutions, there were tetrahydrofuran/heptanes and methanol/water

Solubility of paliperidone palmitate ([1]; solvent ACN): insoluble
Solubility of paliperidone palmitate ([1]; solvent Acetone): insoluble
Solubility of paliperidone palmitate ([1]; solvent DCM): soluble
Solubility of paliperidone palmitate ([1]; solvent EtOAc): insoluble
Solubility of paliperidone palmitate ([1]; solvent EtOH): insoluble
Solubility of paliperidone palmitate ([1]; solvent Heptanes): insoluble
Solubility of paliperidone palmitate ([1]; solvent Hexane): insoluble
Solubility of paliperidone palmitate ([1]; solvent IPA): insoluble
Solubility of paliperidone palmitate ([1]; solvent MTBE): insoluble
Solubility of paliperidone palmitate ([1]; solvent THF): soluble
Solubility of paliperidone palmitate ([1]; solvent Toluene): soluble
Solubility of paliperidone palmitate ([1]; solvent Water): insoluble
Solubility of the second solvent in the first solution containing paliperidone palmitate ([2]; first solvent DCM, second solvent ACN): miscible
Solubility of the second solvent in the first solution containing paliperidone palmitate ([2]; first solvent DCM, second solvent Acetone): miscible
Solubility of the second solvent in the first solution containing paliperidone palmitate ([2]; first solvent DCM, second solvent EtOAc): miscible
Solubility of the second solvent in the first solution containing paliperidone palmitate ([2]; first solvent DCM, second solvent EtOH): miscible
Solubility of the second solvent in the first solution containing paliperidone palmitate ([2]; first solvent DCM, second solvent Heptanes): miscible
Solubility of the second solvent in the first solution containing paliperidone palmitate ([2]; first solvent DCM, second solvent Hexane): miscible
Solubility of the second solvent in the first solution containing paliperidone palmitate ([2]; first solvent DCM, second solvent IPA): miscible
Solubility of the second solvent in the first solution containing paliperidone palmitate ([2]; first solvent DCM, second solvent MTBE): miscible
Solubility of the second solvent in the first solution containing paliperidone palmitate ([2]; first solvent DCM, second solvent THF): miscible
Solubility of the second solvent in the first solution containing paliperidone palmitate ([2]; first solvent DCM, second solvent Toluene): miscible
Solubility of the second solvent in the first solution containing paliperidone palmitate ([2]; first solvent DCM, second solvent Water): layered
Solubility of the second solvent in the first solution containing paliperidone palmitate ([2]; first solvent THF, second solvent ACN): miscible
Solubility of the second solvent in the first solution containing paliperidone palmitate ([2]; first solvent THF, second solvent Acetone): miscible
Solubility of the second solvent in the first solution containing paliperidone palmitate ([2]; first solvent THF, second solvent DCM): miscible
Solubility of the second solvent in the first solution containing paliperidone palmitate ([2]; first solvent THF, second solvent EtOAc): miscible
Solubility of the second solvent in the first solution containing paliperidone palmitate ([2]; first solvent THF, second solvent EtOH): miscible
Solubility of the second solvent in the first solution containing paliperidone palmitate ([2]; first solvent THF, second solvent Heptanes): miscible
Solubility of the second solvent in the first solution containing paliperidone palmitate ([2]; first solvent THF, second solvent Hexane): miscible
Solubility of the second solvent in the first solution containing paliperidone palmitate ([2]; first solvent THF, second solvent IPA): miscible
Solubility of the second solvent in the first solution containing paliperidone palmitate ([2]; first solvent THF, second solvent MTBE): miscible
Solubility of the second solvent in the first solution containing paliperidone palmitate ([2]; first solvent THF, second solvent Toluene): miscible
Solubility of the second solvent in the first solution containing paliperidone palmitate ([2]; first solvent THF, second solvent Water): emulsified
Solubility of the second solvent in the first solution containing paliperidone palmitate ([2]; first solvent Toluene, second solvent ACN): miscible
Solubility of the second solvent in the first solution containing paliperidone palmitate ([2]; first solvent Toluene, second solvent Acetone): miscible
Solubility of the second solvent in the first solution containing paliperidone palmitate ([2]; first solvent Toluene, second solvent DCM): miscible
Solubility of the second solvent in the first solution containing paliperidone palmitate ([2]; first solvent Toluene, second solvent EtOAc): miscible
Solubility of the second solvent in the first solution containing paliperidone palmitate ([2]; first solvent Toluene, second solvent EtOH): miscible
Solubility of the second solvent in the first solution containing paliperidone palmitate ([2]; first solvent Toluene, second solvent Heptanes): emulsified
Solubility of the second solvent in the first solution containing paliperidone palmitate ([2]; first solvent Toluene, second solvent Hexane): emulsified
Solubility of the second solvent in the first solution containing paliperidone palmitate ([2]; first solvent Toluene, second solvent IPA): miscible
Solubility of the second solvent in the first solution containing paliperidone palmitate ([2]; first solvent Toluene, second solvent MTBE): miscible
Solubility of the second solvent in the first solution containing paliperidone palmitate ([2]; first solvent Toluene, second solvent THF): miscible
Solubility of the second solvent in the first solution containing paliperidone palmitate ([2]; first solvent Toluene, second solvent Water): layered
Compound: CCCCCCCCCCCCCCCC(=O)OC1CCCn2c1nc(C)c(CCN1CCC(c3noc4cc(F)ccc34)CC1)c2=O (centres unmarked) [paliperidone palmitate]

Emulsion test result of the first solution containing L-ascorbic acid with the second solvent ([3]; first solvent methanol, second solvent water): emulsified
Emulsion test result of the first solution containing L-ascorbic acid with the second solvent ([3]; first solvent tetrahydrofuran, second solvent heptanes): emulsified
Compound: O=C1O[C@H]([C@@H](O)CO)C(O)=C1O [L-ascorbic acid]
